Key:
Experiment in all cases: Test 14 field trial, preemergence, growth as percent of control
jimsonweed (DATST) = assay type: in vivo, Datura stramonium
Excerpt: (§1) Corn seeds (hybrid ‘Pioneer 31G96 RR’) were planted in mid spring season, 3.8 cm deep in a clay loam soil having 2% organic matter and a pH of 6.6. Plots were 6.1 m long by 3.0 m wide with rows spaced 76 cm apart. Seeds were spaced 15 cm apart within the rows. The field was managed using conventional tillage practices. […] Yellow nutsedge was only evaluated 19 and 28 days after application, and ivyleaf morningglory could only be evaluated 28 days after application. […] Results are the means of the three replicates. This growth inhibition data was converted to results in the form of “plant growth as a percent of control plant growth” using the calculation “100 minus growth inhibition”. […] For “growth as a percent of control” data, Colby's Equation calculates the expected additive effect of herbicidal mixtures having two active ingredients as follows:
(§2) Ga+b=GaGb/100 • wherein Ga+b is the growth as a percent of control of plants treated with the mixture expected from additive contribution of the individual components, • Ga is the observed growth as a percent of control of plants treated with the first active ingredient at the same use rate as in the mixture, and • Gb is the observed growth as a percent of control of plants treated with the second active ingredient at the same use rate as in the mixture. For mixtures having three active ingredients, Colby's Equation to calculate the expected additive effect of herbicidal mixtures is as follows:
(§3) Ga+b+c=GaGbGc/10,000 • wherein Ga and Gb are as defined above and • Ga+b+c is the growth as a percent of control of plants treated with the mixture expected from additive contribution of the individual components, and • Gc is the observed growth as a percent of control of plants treated with the third active ingredient at the same use rate as in the mixture. When these two forms of Colby's Equation are used, if the observed effects on weeds are less than the expected values, the mixture is synergistic.

giant ragweed (AMBTR) = assay type: in vivo, Ambrosia trifida
Excerpt: as §1, §2, §3

[1] = tested on: ladysthumb smartweed (POLPE); assay type: in vivo, Polygonum persicaria
Excerpt: as §1, §2, §3

velvetleaf (ABUTH) = assay type: in vivo, Abutilon theophrasti
Excerpt: as §1, §2, §3

yellow nutsedge (CYPES) = assay type: in vivo, Cyperus esculentus
Excerpt: as §1, §2, §3

[2] = tested on: ivyleaf morningglory (IPOHE); assay type: in vivo, Ipomoea hederacea; details: 28 DAA
Excerpt: as §1, §2, §3

giant foxtail (SETFA) = assay type: in vivo, Setaria faberi
Excerpt: as §1, §2, §3

common ragweed (AMBEL) = assay type: in vivo, Ambrosia artemisiifolia
Excerpt: as §1, §2, §3

In the case of CCS(=O)(=O)c1cccnc1S(=O)(=O)NC(=O)Nc1nc(OC)cc(OC)n1 [Rimsulfuron], the “Obs growth % of control” value (jimsonweed (DATST); 19 DAA, 12 g a.i./ha) is reported as 100%, the “Obs growth % of control” value (jimsonweed (DATST); 19 DAA, 24 g a.i./ha) is reported as 93% and the “Obs growth % of control” value (jimsonweed (DATST); 19 DAA, 36 g a.i./ha) is reported as 85%. For the same molecule, the “Obs growth % of control” value (jimsonweed (DATST); 28 DAA, 12 g a.i./ha) was 100%, the “Obs growth % of control” value (jimsonweed (DATST); 28 DAA, 24 g a.i./ha) was 62% and the “Obs growth % of control” value (jimsonweed (DATST); 28 DAA, 36 g a.i./ha) was 48%. For the same molecule, the “Obs growth % of control” value (jimsonweed (DATST); 56 DAA, 12 g a.i./ha) was 100%, the “Obs growth % of control” value (jimsonweed (DATST); 56 DAA, 24 g a.i./ha) was 92% and the “Obs growth % of control” value (jimsonweed (DATST); 56 DAA, 36 g a.i./ha) was 92%. For the same molecule, the “Obs growth % of control” value (giant ragweed (AMBTR); 19 DAA, 12 g a.i./ha) was 88%, the “Obs growth % of control” value (giant ragweed (AMBTR); 19 DAA, 24 g a.i./ha) was 80% and the “Obs growth % of control” value (giant ragweed (AMBTR); 19 DAA, 36 g a.i./ha) was 75%. The “Obs growth % of control” value (giant ragweed (AMBTR); 28 DAA, 12 g a.i./ha) was 100%, the “Obs growth % of control” value (giant ragweed (AMBTR); 28 DAA, 24 g a.i./ha) was 60% and the “Obs growth % of control” value (giant ragweed (AMBTR); 28 DAA, 36 g a.i./ha) was 60%. The “Obs growth % of control” value (giant ragweed (AMBTR); 56 DAA, 12 g a.i./ha) was 90%, the “Obs growth % of control” value (giant ragweed (AMBTR); 56 DAA, 24 g a.i./ha) was 83% and the “Obs growth % of control” value (giant ragweed (AMBTR); 56 DAA, 36 g a.i./ha) was 68%. For the same molecule, the “Obs growth % of control” value ([1]; 19 DAA, 12 g a.i./ha) was 82%, the “Obs growth % of control” value ([1]; 19 DAA, 24 g a.i./ha) was 58% and the “Obs growth % of control” value ([1]; 19 DAA, 36 g a.i./ha) was 32%. The “Obs growth % of control” value ([1]; 28 DAA, 12 g a.i./ha) was 100%, the “Obs growth % of control” value ([1]; 28 DAA, 24 g a.i./ha) was 33% and the “Obs growth % of control” value ([1]; 28 DAA, 36 g a.i./ha) was 35%. The “Obs growth % of control” value ([1]; 56 DAA, 12 g a.i./ha) was 100%, the “Obs growth % of control” value (velvetleaf (ABUTH); 19 DAA, 12 g a.i./ha) was 78% and the “Obs growth % of control” value (velvetleaf (ABUTH); 19 DAA, 24 g a.i./ha) was 62%. For the same molecule, the “Obs growth % of control” value (velvetleaf (ABUTH); 19 DAA, 36 g a.i./ha) was 52%, the “Obs growth % of control” value (velvetleaf (ABUTH); 28 DAA, 12 g a.i./ha) was 53% and the “Obs growth % of control” value (velvetleaf (ABUTH); 28 DAA, 24 g a.i./ha) was 13%. The “Obs growth % of control” value (velvetleaf (ABUTH); 28 DAA, 36 g a.i./ha) was 15%, the “Obs growth % of control” value (velvetleaf (ABUTH); 56 DAA, 12 g a.i./ha) was 93% and the “Obs growth % of control” value (velvetleaf (ABUTH); 56 DAA, 24 g a.i./ha) was 65%. For the same molecule, the “Obs growth % of control” value (velvetleaf (ABUTH); 56 DAA, 36 g a.i./ha) was 62%, the “Obs growth % of control” value (yellow nutsedge (CYPES); 19 DAA, 12 g a.i./ha) was 85% and the “Obs growth % of control” value (yellow nutsedge (CYPES); 19 DAA, 24 g a.i./ha) was 85%. The “Obs growth % of control” value (yellow nutsedge (CYPES); 19 DAA, 36 g a.i./ha) was 70%, the “Obs growth % of control” value (yellow nutsedge (CYPES); 28 DAA, 12 g a.i./ha) was 83% and the “Obs growth % of control” value (yellow nutsedge (CYPES); 28 DAA, 24 g a.i./ha) was 60%. The “Obs growth % of control” value (yellow nutsedge (CYPES); 28 DAA, 36 g a.i./ha) was 50%, the “Obs growth % of control” value ([2]; 12 g a.i./ha) was 100% and the “Obs growth % of control” value ([2]; 24 g a.i./ha) was 3%. For the same molecule, the “Obs growth % of control” value ([2]; 36 g a.i./ha) was 43%, the “Obs growth % of control” value (giant foxtail (SETFA); 19 DAA, 12 g a.i./ha) was 32% and the “Obs growth % of control” value (giant foxtail (SETFA); 19 DAA, 24 g a.i./ha) was 33%. The “Obs growth % of control” value (giant foxtail (SETFA); 19 DAA, 36 g a.i./ha) was 7%, the “Obs growth % of control” value (giant foxtail (SETFA); 28 DAA, 12 g a.i./ha) was 33% and the “Obs growth % of control” value (giant foxtail (SETFA); 28 DAA, 24 g a.i./ha) was 9%. For the same molecule, the “Obs growth % of control” value (giant foxtail (SETFA); 28 DAA, 36 g a.i./ha) was 5%, the “Obs growth % of control” value (giant foxtail (SETFA); 56 DAA, 12 g a.i./ha) was 70% and the “Obs growth % of control” value (giant foxtail (SETFA); 56 DAA, 24 g a.i./ha) was 40%. For the same molecule, the “Obs growth % of control” value (giant foxtail (SETFA); 56 DAA, 36 g a.i./ha) was 28%, the “Obs growth % of control” value (common ragweed (AMBEL); 19 DAA, 12 g a.i./ha) was 88% and the “Obs growth % of control” value (common ragweed (AMBEL); 19 DAA, 24 g a.i./ha) was 80%. The “Obs growth % of control” value (common ragweed (AMBEL); 19 DAA, 36 g a.i./ha) was 68%, the “Obs growth % of control” value (common ragweed (AMBEL); 28 DAA, 12 g a.i./ha) was 100% and the “Obs growth % of control” value (common ragweed (AMBEL); 28 DAA, 24 g a.i./ha) was 45%. For the same molecule, the “Obs growth % of control” value (common ragweed (AMBEL); 28 DAA, 36 g a.i./ha) was 33%, the “Obs growth % of control” value (common ragweed (AMBEL); 56 DAA, 12 g a.i./ha) was 85% and the “Obs growth % of control” value (common ragweed (AMBEL); 56 DAA, 24 g a.i./ha) was 63%. The “Obs growth % of control” value (common ragweed (AMBEL); 56 DAA, 36 g a.i./ha) was 53%.

Source: patent US20100285959A1, “HERBICIDAL MIXTURES” (priority 2006, published 2010)
